# In paper PMC8157534 (ACS Nano, 2021):
# Target: TmrAB (Thermus thermophilus, UniProt Q72J04+Q72J05)
# Conditions: 2 mM Mg-ATP, 2 mM MgCl2, pH 7.5, 0.2% DDM, 40 °C, 8 min
# Chain of TmrAB (Q72J05 1-600): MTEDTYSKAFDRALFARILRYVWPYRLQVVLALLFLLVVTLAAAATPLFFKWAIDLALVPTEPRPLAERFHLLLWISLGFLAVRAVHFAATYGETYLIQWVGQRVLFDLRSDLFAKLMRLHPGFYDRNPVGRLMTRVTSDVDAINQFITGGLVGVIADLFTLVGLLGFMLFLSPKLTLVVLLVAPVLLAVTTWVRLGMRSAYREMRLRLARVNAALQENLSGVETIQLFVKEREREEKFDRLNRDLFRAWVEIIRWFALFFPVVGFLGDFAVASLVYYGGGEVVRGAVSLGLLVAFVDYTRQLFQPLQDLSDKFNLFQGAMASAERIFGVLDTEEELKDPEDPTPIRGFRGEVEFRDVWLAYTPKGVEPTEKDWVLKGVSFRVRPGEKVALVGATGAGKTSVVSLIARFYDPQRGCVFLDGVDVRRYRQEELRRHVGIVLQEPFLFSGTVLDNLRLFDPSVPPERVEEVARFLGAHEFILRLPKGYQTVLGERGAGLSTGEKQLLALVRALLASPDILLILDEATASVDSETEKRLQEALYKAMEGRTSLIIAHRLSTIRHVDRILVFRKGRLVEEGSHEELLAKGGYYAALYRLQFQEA
# Chain of TmrAB (Q72J04 1-578): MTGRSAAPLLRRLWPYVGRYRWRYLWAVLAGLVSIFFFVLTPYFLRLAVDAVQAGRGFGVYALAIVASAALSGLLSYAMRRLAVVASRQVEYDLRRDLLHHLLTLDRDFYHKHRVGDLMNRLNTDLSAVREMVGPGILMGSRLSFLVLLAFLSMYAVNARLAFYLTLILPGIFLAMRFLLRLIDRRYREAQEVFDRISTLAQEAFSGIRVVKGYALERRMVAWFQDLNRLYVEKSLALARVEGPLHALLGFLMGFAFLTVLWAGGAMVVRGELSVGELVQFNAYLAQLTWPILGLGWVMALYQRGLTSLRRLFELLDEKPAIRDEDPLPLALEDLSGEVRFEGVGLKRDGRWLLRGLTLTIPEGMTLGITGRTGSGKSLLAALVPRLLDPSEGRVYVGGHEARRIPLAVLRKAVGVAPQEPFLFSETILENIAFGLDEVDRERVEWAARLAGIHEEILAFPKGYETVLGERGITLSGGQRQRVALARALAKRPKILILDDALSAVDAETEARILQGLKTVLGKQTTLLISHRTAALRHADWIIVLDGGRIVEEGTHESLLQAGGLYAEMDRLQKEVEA
compound,measurement,value
Nc1ncnc2c1ncn2[C@@H]1O[C@H](COP(=O)(O)OP(=O)(O)OP(=O)(O)O)[C@@H](O)[C@H]1O [ATP],ATPase activity,A high ATPase activity above background demonstrated TmrAB function (Figure 1c)
